Assay results reported in ChEMBL document CHEMBL4359904, “Structural tuning of acridones for developing anticancer agents targeting dihydrofolate reductase” (Bioorg Med Chem Lett, 2019).
The source made the active and inactive calls. No cut-off for these calls is given here.

Key:
C6 [1] = experiment: Cell cycle arrest in rat C6 cells assessed as increase in cell population at sub G0 phase measured after 24 hrs by propidium iodide staining based flow cytometry analysis; type: functional
NCI-H23 = experiment: Growth inhibition of human NCI-H23 cells incubated for 48 hrs by sulforhodamine B assay; type: functional; conditions: NCI-H23, 48 h
MDA-MB-231 = experiment: Growth inhibition of human MDA-MB-231/ATCC cells incubated for 48 hrs by sulforhodamine B assay; type: functional; conditions: MDA-MB-231, 48 h
RPMI-8226 = experiment: Growth inhibition of human RPMI8226 cells at 10^-5 M incubated for 48 hrs by sulforhodamine B assay relative to control; type: functional; conditions: RPMI-8226, 48 h, read-out: GI
SW-620 = experiment: Growth inhibition of human SW620 cells incubated for 48 hrs by sulforhodamine B assay; type: functional; conditions: SW-620, 48 h
NCI-H460 [2] = experiment: Growth inhibition of human NCI-H460 cells at 10^-5 M cells incubated for 48 hrs by sulforhodamine B assay relative to control; type: functional
NCI/ADR-RES = experiment: Growth inhibition of human NCI/ADR-RES cells incubated for 48 hrs by sulforhodamine B assay; type: functional
C6 [3] = experiment: Antiproliferative activity against rat C6 cells assessed as decrease in cell viability measured after 48 hrs by MTT assay; type: functional, cell-based
SK-OV-3 = experiment: Growth inhibition of human SKOV3 cells incubated for 48 hrs by sulforhodamine B assay; type: functional; conditions: SK-OV-3, 48 h
[4] = tested on: Panel NCI-60 (60 carcinoma cell lines); experiment: Growth inhibition of human NCI60 cells at incubated for 48 hrs by sulforhodamine B assay; type: functional
IGROV-1 = experiment: Growth inhibition of human IGROV1 cells incubated for 48 hrs by sulforhodamine B assay; type: functional; conditions: IGROV-1, 48 h
PC-3 = experiment: Growth inhibition of human PC3 cells incubated for 48 hrs by sulforhodamine B assay; type: functional; conditions: PC-3, 48 h
OVCAR-8 = experiment: Growth inhibition of human OVCAR8 cells incubated for 48 hrs by sulforhodamine B assay; type: functional; conditions: OVCAR-8, 48 h
SR = experiment: Growth inhibition of human SR cells at 10^-5 M incubated for 48 hrs by sulforhodamine B assay relative to control; type: functional; conditions: read-out: GI
MCF7 = experiment: Growth inhibition of human MCF7 cells incubated for 48 hrs by sulforhodamine B assay; type: functional; conditions: MCF7, 48 h
NCI-H460 [5] = experiment: Growth inhibition of human NCI-H460 cells incubated for 48 hrs by sulforhodamine B assay; type: functional; conditions: NCI-H460, 48 h
MDA-MB-468 = experiment: Growth inhibition of human MDA-MB-468 cells at 10^-5 M incubated for 48 hrs by sulforhodamine B assay relative to control; type: functional; conditions: MDA-MB-468, 48 h, read-out: GI
CCRF-CEM = experiment: Growth inhibition of human CCRF-CEM cells incubated for 48 hrs by sulforhodamine B assay; type: functional
HCT-116 = experiment: Growth inhibition of human HCT116 cells incubated for 48 hrs by sulforhodamine B assay; type: functional; conditions: HCT-116, 48 h
C6 [6] = experiment: Induction of morphological changes in rat C6 cells assessed as increase in total length of processes measured after 24 hrs by inverted microscopy analysis relative to control; type: functional
OVCAR-5 = experiment: Growth inhibition of human OVCAR5 cells at 10^-5 M incubated for 48 hrs by sulforhodamine B assay relative to control; type: functional; conditions: OVCAR-5, 48 h, read-out: GI
OVCAR-3 = experiment: Growth inhibition of human OVCAR3 cells incubated for 48 hrs by sulforhodamine B assay; type: functional; conditions: OVCAR-3, 48 h
Malme-3M = experiment: Growth inhibition of human MALME-3M cells incubated for 48 hrs by sulforhodamine B assay; type: functional
MDA-MB-435 = experiment: Growth inhibition of human MDA-MB-435 cells incubated for 48 hrs by sulforhodamine B assay; type: functional; conditions: MDA-MB-435, 48 h
Dihydrofolate reductase [7] = target: T1, Dihydrofolate reductase (Homo sapiens, UniProt P00374); experiment: Inhibition of human dihydrofolate reductase using dihydrofolic acid as substrate preincubated for 1 hr in presence of NADPH followed by substrate addition by enzyme immunoassay
T1 sequence (P00374 whole entry): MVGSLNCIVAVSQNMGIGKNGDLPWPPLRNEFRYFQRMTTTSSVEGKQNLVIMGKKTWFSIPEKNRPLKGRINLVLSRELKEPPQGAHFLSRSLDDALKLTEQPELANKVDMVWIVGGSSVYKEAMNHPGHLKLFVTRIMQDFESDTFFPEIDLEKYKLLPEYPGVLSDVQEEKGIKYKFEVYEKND

UO-31 = experiment: Growth inhibition of human UO31 cells incubated for 48 hrs by sulforhodamine B assay; type: functional; conditions: UO-31, 48 h
K562 = experiment: Growth inhibition of human K562 cells at 10^-5 M incubated for 48 hrs by sulforhodamine B assay relative to control; type: functional; conditions: K562, 48 h, read-out: GI
Dihydrofolate reductase [8] = target: T1, Dihydrofolate reductase; experiment: Inhibition of human dihydrofolate reductase assessed as inhibition constant by UV-Vis spectra based Benesi Hilebrand equation analysis
A549 = experiment: Growth inhibition of human A549/ATCC cells incubated for 48 hrs by sulforhodamine B assay; type: functional; conditions: A549, 48 h
UACC-257 = experiment: Growth inhibition of human UACC257 cells incubated for 48 hrs by sulforhodamine B assay; type: functional; conditions: UACC-257, 48 h
786-0 = experiment: Growth inhibition of human 786-0 cells incubated for 48 hrs by sulforhodamine B assay; type: functional; conditions: 786-0, 48 h
[9] = read-out: pLC50 (the source's name) (converted)
[10] = read-out: LC50 (the source's name)

O=c1c2ccccc2n(CC2CO2)c2ccccc12 (racemic)
Activity (C6 [1]): Active
GI50 (NCI-H23): 295 nM
CC50 (NCI-H23; [9]): 57500 nM
TGI (NCI-H23; read-out: pTGI (converted)): 1290 nM
GI50 (MDA-MB-231): 631 nM
CC50 (MDA-MB-231; [9]): > 100000 nM
TGI (MDA-MB-231; read-out: pTGI (converted)): 3310 nM
inhibition of growth at 10 µM (RPMI-8226): 100%
GI50 (SW-620; read-out: GI50): 50 nM
CC50 (SW-620; [10]): > 50 nM
GI50 (SW-620; read-out: pGI50 (converted)): 56.2 nM
CC50 (SW-620; [9]): > 100000 nM
TGI (SW-620; read-out: pTGI (converted)): 1200 nM
growth inhibition (GI) (NCI-H460 [2]): 100%
GI50 (NCI/ADR-RES): 257 nM
CC50 (NCI/ADR-RES; [9]): > 100000 nM
TGI (NCI/ADR-RES; read-out: pTGI (converted)): 1100 nM
inhibition (C6 [3]): Dose-dependent effect
IC50 (C6 [3]; C6, 48 h): 250 to 1500 nM
GI50 (SK-OV-3): 1410 nM
CC50 (SK-OV-3; [9]): > 100000 nM
GI50 [4]: 1600 nM
TGI [4]: 5600 nM
CC50 [4, 10]: 44400 nM
GI50 (IGROV-1): 331 nM
CC50 (IGROV-1; [9]): 67600 nM
TGI (IGROV-1; read-out: pTGI (converted)): 2570 nM
GI50 (PC-3): 331 nM
CC50 (PC-3; [9]): > 100000 nM
TGI (PC-3; read-out: pTGI (converted)): 4790 nM
GI50 (OVCAR-8): 148 nM
CC50 (OVCAR-8; [9]): > 100000 nM
TGI (OVCAR-8; read-out: pTGI (converted)): 1320 nM
inhibition of growth at 10 µM (SR): 91%
GI50 (MCF7; read-out: GI50): 50 nM
CC50 (MCF7; [10]): > 100000 nM
GI50 (MCF7; read-out: pGI50 (converted)): 55 nM
CC50 (MCF7; [9]): > 100000 nM
TGI (MCF7; read-out: pTGI (converted)): 741 nM
GI50 (NCI-H460 [5]): 380 nM
CC50 (NCI-H460 [5]; [9]): > 100000 nM
TGI (NCI-H460 [5]; read-out: pTGI (converted)): 1660 nM
inhibition of growth at 10 µM (MDA-MB-468): 100%
GI50 (CCRF-CEM; read-out: GI50): 70 nM
CC50 (CCRF-CEM; [10]): > 100000 nM
GI50 (CCRF-CEM; read-out: pGI50 (converted)): 76.9 nM
CC50 (CCRF-CEM; [9]): > 100000 nM
GI50 (HCT-116): 126 nM
CC50 (HCT-116; [9]): > 100000 nM
TGI (HCT-116; read-out: pTGI (converted)): 10000 nM
Activity (C6 [6]): 16 - 18%
inhibition of growth at 10 µM (OVCAR-5): 100%
GI50 (OVCAR-3): 288 nM
CC50 (OVCAR-3; [9]): > 100000 nM
TGI (OVCAR-3; read-out: pTGI (converted)): 1510 nM
GI50 (Malme-3M): 589 nM
CC50 (Malme-3M; [9]): 4900 nM
TGI (Malme-3M; read-out: pTGI (converted)): 2000 nM
GI50 (MDA-MB-435): 282 nM
CC50 (MDA-MB-435; [9]): 4680 nM
TGI (MDA-MB-435; read-out: pTGI (converted)): 1230 nM
IC50 (Dihydrofolate reductase [7]): 20 nM
GI50 (UO-31): 178 nM
TGI (UO-31; read-out: pTGI (converted)): 407 nM
inhibition of growth at 10 µM (K562): 92%
Ki (Dihydrofolate reductase [8]): 1600 nM
GI50 (A549): 479 nM
CC50 (A549; [9]): > 100000 nM
TGI (A549; read-out: pTGI (converted)): 3800 nM
GI50 (UACC-257): 457 nM
CC50 (UACC-257; [9]): > 100000 nM
TGI (UACC-257; read-out: pTGI (converted)): 2820 nM
GI50 (786-0): 372 nM
CC50 (786-0; [9]): > 100000 nM
TGI (786-0; read-out: pTGI (converted)): 5250 nM
